Experimental data taken from patent US20220390432A1, “METHODS OF CHARACTERIZING AND UTILIZING AGENT-CONDENSATE INTERACTIONS” (Whitehead Institute for Biomedical Research, priority 2019, published 2022).
Entries after “also recorded” stand apart in the source; their conditions may differ.

Experiments:
MED1 aromatic mutant = target: T1, MED1 aromatic mutant (Homo sapiens, UniProt Q15648, F1031A/F1273A/F1351A/F1564A/F657A/F708A/F713A/F724A/F821A/F826A/F858A/F859A/F865A/F878A/F883A/F895A/F898A/F920A/F931A/W1533A/Y1083A/Y1132A/Y1431A/Y1456A/Y1476A/Y1492A/Y661A/Y752A/Y835A/Y882A); assay: In vitro droplet assay with MED1 aromatic mutant; assay type: binding; settings: 10% PEG, 125 mM NaCl, 10 μM protein, 5 μM small molecule
T1 construct: MED1—aromatic mutant amino acids 600-1581, all aromatic residues changed to alanine; 6xHis (N); made in house; host or cells: LOBSTR cells (E. coli)
Description: MED1—aromatic mutant amino acids 600-1581, all aromatic residues changed to alanine.
Recombinant BFP, GFP, or mCherry fusion proteins were concentrated and desalted to an appropriate protein concentration and 125 mM NaCl using Amicon Ultra centrifugal filters (30K MWCO, Millipore). Recombinant protein was added too. […] The protein solution was immediately loaded onto glass bottom 384 well plate (Cellvis P384-1.5H-N) and imaged with an Andor confocal microscope with a 150× objective. Unless indicated, images presented are of droplets settled on the glass coverslip.
To analyze in vitro droplet experiments, custom Python scripts using the scikit-image package were written to identify droplets and characterize their size, shape and intensity. […] After segmentation, mean intensity for each droplet was calculated while excluding pixels near the phase interface, and background-corrected by subtracting intensity of dark images of droplet formation buffer only. Droplets identified in the channel of the fluorescent protein from ten independent fields of view were quantified for each experiment. The maximum intensity of signal within the droplets was calculated for each channel, the maximum intensity in the drug channel was termed “maximum drug intensity”. […]

[1] = test system: platinated DNA in HCT116 cells; assay: Cisplatin/condensate co-immunofluorescence; assay type: cell-based, human; settings: HCT116, 50 μM cisplatin for 6 hours
Description: HCT116 cells were plated in 24-well plate at 50 k cells per well to yield 100 k cells after 21 hours (doubling time of HCTs). Cells were permeabilized using a solution of Tx100 in media at 0.55 pmol/cell for 12 minutes at 37° C. Cells were then washed with 500 ul media and treated with 500 ul of 50 uM cisplatin in media for 6 hours. After 6 hours, the cells were washed once with room temperature PBS and then fixed with 500 uL 4% formaldehyde in PBS for 12 min at room temperature. The cells were then washed 3 more times with PBS. Coverslips were put into a humidifying chamber or stored at 4° C. in PBS. Permeabilization of cells were performed using 0.5% Triton X-100 (Sigma Aldrich, X100) in PBS for 10 minutes followed by three PBS washes. Cells were blocked with 4% IgG-free Bovine Serum Albumin, BSA, (VWR, 102643-516) for 30 minutes and the primary antibody was added at a concentration of 1:500 in PBS for 4-16 hours. […]
For the analysis of co-immunofluorescence data, custom python scripts were written to both process and analyze the 3D image data from IF and DAPI channels. Nuclei were detected using the Triangle thresholding method and a nuclear mask was applied the IF channels. […] Percentage of cisplatin overlap was calculated by the number of defined nuclear cisplatin puncta that overlapped with the protein of interest puncta divided by the total number of nuclear cisplatin puncta.

[2] = test system: nuclear condensates in HCT116 cells; assay: Cisplatin treatment followed by live cell imaging, condensate score; assay type: cell-based, human; settings: HCT116, 50 μM cisplatin, up to 12 hours
Description: HCT116 cells with the indicated GFP knock-in were plated at 35 k per well of a glass bottom 8-well chamber slide. Following incubation at 37° C. overnight, cells were treated with 50 uM cisplatin in DMEM or a 1:1000 dilution of DMSO for 12 hours. […] For representative images of each of the six tagged lines treated with vehicle or 50 μM cisplatin, cells were imaged on the Zeiss LSM 880 confocal microscope with Airyscan detector with 63× objective at 37° C. Nuclei were segmented from images of treated cells by custom Python scripts using the scikit-image, open-cv, and […] Python packages. Nuclei were segmented by median filter, thresholding, separated by the watershed algorithm, and labeled by the scikit-image label function. […] A grey-level co-occurrence matrix (GLCM) was then generated from the projected signal, and the 'correlation' texture property from the GLCM was calculated per nucleus. One-way ANOVA followed by Sidak's multiple comparisons test was performed on the correlation values across conditions using GraphPad Prism version 8.2.0 for Mac (www.graphpad.com). Finally, to derive the condensation score, these values were subtracted from 1.

[3] = test system: MED1 genomic occupancy in HCT116 cells; assay: MED1 ChIP-seq in HCT116 cells; assay type: cell-based, human; settings: 50 μM cisplatin for 6 hours
[4] = test system: super-enhancers in Hela cells; settings: cisplatin treated Hela cells, published data (41); cited from earlier work

With `N.N.[Cl][Pt][Cl]` [cisplatin] as the molecule, how does the “partitioning into MED1 aromatic mutant droplets” value (MED1 aromatic mutant) read?
The value was “no longer partitioned; also recorded: substantially reduced”.

And the “colocalization of platinated DNA with nuclear condensates” value [1]?
Its value is “frequently colocalized with MED1 condensates, but not with HP1α or FIB1 condensates”.

And the “effect on nuclear condensates in live cells” value [2]?
Its value is “selective and progressive reduction in MED1 condensates; also recorded: Dissolution of MED1 condensates”.

What about the “effect on nuclear condensates in live cells” value ([2]; listed as Cisplatin) of the same molecule?
Its value is “specifically disrupts MED1 and BRD4 condensates”.

What about the “MED1 ChIP-seq signal after cisplatin” value [3] of the same molecule?
The value was “preferential loss of MED1 ChIP-seq signal at super-enhancers; also recorded: reduced”.

And the “location of cisplatin-modified DNA (platinated-DNA pull-down sequencing)” value [4]?
Its value is “preferentially occurs at super-enhancers”.
